Measured values reported in patent publication US12077503B2, “Substituted cyclic amides and their use as herbicides” (FMC CORPORATION, priority 2015, dated 2024).
Read-outs that look alike come from different tables or passages of the source.

How the values were obtained:
Format in all cases: in vivo
[1] = test system: ryegrass, Italian (Italian ryegrass, Lolium multiflorum); test: Test A postemergence; details: Lolium multiflorum, post-emergence, 240 h; for pest or weed control at 125 g/ha: 125 g ai/ha
How it was run: (§1)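 In a loam soil and sand blend, planted seeds got a preemergence directed soil spray, and young plants at the one- to two-leaf stage, 2–10 cm high, got a postemergence application; ~10 d greenhouse hold; injury rated visually, 0 = none, 100 = complete control.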

[2] = test system: giant foxtail (Setaria faberii); test: Test A postemergence; details: Setaria faberi, post-emergence, 240 h; for pest or weed control at 125 g/ha: 125 g ai/ha
How it was run: as §1

[3] = test system: pigweed (Amaranthus retroflexus); test: Test A postemergence; details: Amaranthus retroflexus, post-emergence, 240 h; for pest or weed control at 125 g/ha: 125 g ai/ha
How it was run: as §1

[4] = test system: barnyardgrass (Echinochloa crus-galli); test: Test A preemergence; details: Echinochloa crus-galli, pre-emergence, 240 h, read-out: Plant response rating, Barnyardgrass; for pest or weed control at 125 g/ha: 125 g ai/ha; for pest or weed control at 500 g/ha: 500 g ai/ha
How it was run: as §1

[5] = test system: ryegrass, Italian (Italian ryegrass, Lolium multiflorum); test: Test A preemergence; details: Lolium multiflorum, pre-emergence, 240 h, read-out: Plant response rating, Ryegrass, Italian; for pest or weed control at 125 g/ha: 125 g ai/ha
How it was run: as §1

Kochia (Kochia scoparia) = test: Test A preemergence; details: Bassia scoparia, pre-emergence, 240 h, read-out: Plant response rating, Kochia; for pest or weed control at 125 g/ha: 125 g ai/ha; for pest or weed control at 500 g/ha: 500 g ai/ha
How it was run: as §1

[6] = test system: ragweed (common ragweed, Ambrosia elatior); test: Test A preemergence; details: Ambrosia artemisiifolia, pre-emergence, 240 h, read-out: Plant response rating, Ragweed; for pest or weed control at 125 g/ha: 125 g ai/ha; for pest or weed control at 500 g/ha: 500 g ai/ha
How it was run: as §1

[7] = test system: giant foxtail (Setaria faberii); test: Test A preemergence; details: Setaria faberi, pre-emergence, 240 h, read-out: Plant response rating, Foxtail, Giant; for pest or weed control at 125 g/ha: 125 g ai/ha; for pest or weed control at 500 g/ha: 500 g ai/ha
How it was run: as §1

[8] = test system: pigweed (Amaranthus retroflexus); test: Test A preemergence; details: Amaranthus retroflexus, pre-emergence, 240 h, read-out: Plant response rating, Pigweed; for pest or weed control at 125 g/ha: 125 g ai/ha; for pest or weed control at 500 g/ha: 500 g ai/ha
[9] = test system: barnyardgrass (Echinochloa crus-galli); test: Test B flooded paddy test; details: Echinochloa crus-galli, Flood, 250 g ai/ha
How it was run: (§2)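 2-leaf plants; pots flooded 3 cm over soil; cpd added to paddy water; depth held; greenhouse 13–15 d; visual rating vs controls, 0 = no effect, 100 = complete control.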

rice (Oryra sativa) = test: Test B flooded paddy test; details: Oryza sativa, Flood, 250 g ai/ha
How it was run: as §2

[10] = test system: sedge, umbrella (small-flower umbrella sedge, Cyperus difformis); test: Test B flooded paddy test; details: Cyperus difformis, Flood, 250 g ai/ha
How it was run: as §2

[11] = test system: ducksalad (Heteranthera limosa); test: Test B flooded paddy test; details: Heteranthera limosa, Flood, 250 g ai/ha
How it was run: as §2

[12] = preemergence, visual rating after approx. 10 d, 0 to 100 scale where 0 is no effect and 100 is complete control
[13] = preemergence, 0 to 100 scale, 0 = no effect, 100 = complete control
[14] = preemergence, 0 to 100 scale (0 no effect, 100 complete control)
[15] = Preemergence, 0 to 100 scale (0 no effect, 100 complete control)

For CN1C[C@H](c2nccs2)[C@@H](C(=O)Nc2ccccc2F)C1=O [Compound 773], the pest or weed control at 125 g/ha ([1]; postemergence, visual injury after approximately 10 d, 0 to 100 scale (0 no effect, 100 complete control), read-out: Plant response rating, Ryegrass, Italian) was 0%, the pest or weed control at 125 g/ha ([2]; postemergence, visual injury after approximately 10 d, 0 to 100 scale (0 no effect, 100 complete control), read-out: Plant response rating, Foxtail, Giant) was 0% and the pest or weed control at 125 g/ha ([3]; postemergence, visual injury after approximately 10 d, 0 to 100 scale (0 no effect, 100 complete control), read-out: Plant response rating, Pigweed) was 0%. It also gave a pest or weed control at 125 g/ha [4, 12] of 0%, a pest or weed control at 500 g/ha [4, 13] of 0% and a pest or weed control at 125 g/ha [5, 12] of 0%. It also gave a pest or weed control at 125 g/ha (Kochia (Kochia scoparia); [12]) of 0%, a pest or weed control at 500 g/ha (Kochia (Kochia scoparia); [13]) of 0% and a pest or weed control at 125 g/ha [6, 12] of 0%. For the same molecule, the pest or weed control at 500 g/ha [6, 13] was 0%, the pest or weed control at 125 g/ha [7, 12] was 0% and the pest or weed control at 500 g/ha [7, 13] was 0%. The pest or weed control at 125 g/ha [8, 12] was 0%, the pest or weed control at 500 g/ha [8, 13] was 0% and the pest or weed control at 250 g/ha ([9]; scale of 0 to 100 where 0 is no effect and 100 is complete control, read-out: Barnyardgrass plant response rating) was 0%. It also gave a pest or weed control at 250 g/ha (rice (Oryra sativa); scale of 0 to 100 where 0 is no effect and 100 is complete control, read-out: Rice plant response rating) of 0%, a pest or weed control at 250 g/ha ([10]; scale of 0 to 100 where 0 is no effect and 100 is complete control, read-out: Sedge, Umbrella plant response rating) of 0% and a pest or weed control at 250 g/ha ([11]; scale of 0 to 100 where 0 is no effect and 100 is complete control, read-out: Ducksalad plant response rating) of 0%.
For CN1C[C@H](c2ccc(C(F)(F)F)cc2)[C@@H](C(=O)Nc2cccc(F)c2C#N)C1=O [Compound 1380], the pest or weed control at 125 g/ha ([1]; Postemergence, visual rating about 10 d after treatment, read-out: Ryegrass, Italian plant response rating (0 to 100 scale)) was 50%, the pest or weed control at 500 g/ha ([1]; Postemergence, 500 g ai/ha, visual injury, 0 to 100 scale (0 no effect, 100 complete control), approx. 10 d, read-out: Plant response rating, Ryegrass, Italian) was 60% and the pest or weed control at 125 g/ha ([2]; Postemergence, visual rating about 10 d after treatment, read-out: Foxtail, Giant plant response rating (0 to 100 scale)) was 90%. It also gave a pest or weed control at 500 g/ha ([2]; Postemergence, 500 g ai/ha, visual injury, 0 to 100 scale (0 no effect, 100 complete control), approx. 10 d, read-out: Plant response rating, Foxtail, Giant) of 90%, a pest or weed control at 125 g/ha ([3]; Postemergence, visual rating about 10 d after treatment, read-out: Pigweed plant response rating (0 to 100 scale)) of 50% and a pest or weed control at 500 g/ha ([3]; Postemergence, 500 g ai/ha, visual injury, 0 to 100 scale (0 no effect, 100 complete control), approx. 10 d, read-out: Plant response rating, Pigweed) of 60%. It also gave a pest or weed control at 500 g/ha [4, 14] of 100%, a pest or weed control at 125 g/ha [4, 15] of 90% and a pest or weed control at 500 g/ha ([5]; 500 g ai/ha, preemergence, 0 to 100 scale (0 no effect, 100 complete control)) of 50%. For the same molecule, the pest or weed control at 125 g/ha [5, 15] was 50%, the pest or weed control at 500 g/ha (Kochia (Kochia scoparia); [14]) was 90% and the pest or weed control at 125 g/ha (Kochia (Kochia scoparia); [15]) was 80%. For the same molecule, the pest or weed control at 500 g/ha [6, 14] was 80%, the pest or weed control at 125 g/ha [6, 15] was 70% and the pest or weed control at 500 g/ha [7, 14] was 100%. The pest or weed control at 125 g/ha [7, 15] was 100%, the pest or weed control at 500 g/ha [8, 14] was 90% and the pest or weed control at 125 g/ha [8, 15] was 80%. The pest or weed control at 250 g/ha ([9]; 360 h, visually evaluated after 13 to 15 d, read-out: Plant response rating, Barnyardgrass (0 to 100 scale where 0 is no effect and 100 is complete control)) was 60%, the pest or weed control at 250 g/ha (rice (Oryra sativa); 360 h, visually evaluated after 13 to 15 d, read-out: Plant response rating, Rice (0 to 100 scale where 0 is no effect and 100 is complete control)) was 0% and the pest or weed control at 250 g/ha ([10]; 360 h, visually evaluated after 13 to 15 d, read-out: Plant response rating, Sedge, Umbrella (0 to 100 scale where 0 is no effect and 100 is complete control)) was 0%. For the same molecule, the pest or weed control at 250 g/ha ([11]; 360 h, visually evaluated after 13 to 15 d, read-out: Plant response rating, Ducksalad (0 to 100 scale where 0 is no effect and 100 is complete control)) was 100%.
